Measurements published in US7129078B2, “DNA encoding androgen receptor fragment” (University of North Carolina at Chapel Hill, priority 1988, dated 2006).

Target: T1, steroid-binding domain of hAR (human androgen receptor) expressed from cDNA fragment (Homo sapiens, UniProt P10275)
T1 sequence (P10275 669-900 limits assumed): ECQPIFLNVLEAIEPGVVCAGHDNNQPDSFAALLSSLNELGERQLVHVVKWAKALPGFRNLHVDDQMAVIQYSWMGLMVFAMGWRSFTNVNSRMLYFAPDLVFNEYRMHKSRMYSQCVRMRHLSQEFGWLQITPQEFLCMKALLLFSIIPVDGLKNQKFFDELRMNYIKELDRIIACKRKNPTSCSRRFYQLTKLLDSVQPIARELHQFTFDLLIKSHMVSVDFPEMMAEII
Settings: unlabeled steroid at 10- and 100-fold excess over 5 nM [3H]dihydrotestosterone

steroid specificity (relative affinity): low affinity
SMILES: C[C@]12CCC(=O)C=C1CC[C@@H]1[C@@H]2[C@@H](O)C[C@@]2(C)[C@H]1CC[C@]2(O)C(=O)CO [cortisol]
